Measured values taken from patent US9925238B2, “Use of peptide for treating angiogenesis-related diseases” (MacKay Memorial Hospital, priority 2014, dated 2018).

Assays:
[1] = test system: human endothelial progenitor cells (EPCs); test: Matrigel angiogenesis assay (tube formation) with EPCs; format: cell-based; conditions: for inhibition of angiogenesis in EPCs: FIGS. 3 and 4
Protocol: (§1) A total of 200 μl Matrigel was added into wells of a 24-well plate and polymerized for 30 minutes at 37° C. EPC suspensions containing various concentrations of Dsg2 peptide (0.25 mg/ml, 0.5 mg/ml, or 1 mg/ml), scramble peptide (1 mg/ml) or Avastin (10 μg/ml) were plated on the Matrigel-coated wells at a density of 5×10^4 cells (EPCs, or HUVECs) in MV2 medium containing 2% FBS for 24 hours at 37° C. in a 5% CO2 humidified incubator. Each sample was tested in triplicate in the same plate, and wells were photographed with a Leica camera (×40 magnification).
(§2) Tube length in relative to the control was quantified by measuring tubes in 5 randomly chosen fields from each well with QWIN software. Experiments were repeated more than three times. The values were expressed as the means±S.D. for the three independent experiments.

[2] = test system: human umbilical vein endothelial cells (HUVECs); test: Matrigel angiogenesis assay (tube formation) with HUVECs; format: cell-based; conditions: FIGS. 5 and 6; for inhibition of angiogenesis of HUVEC cells on the Matrigel: 24 hours
Protocol: as §1, §2

[3] = test system: C57BL/6 mice; test: Matrigel plug assay; format: in vivo, mouse; conditions: 7 days
Protocol: 0.5 ml of growth factor-reduced liquid Matrigel respectively containing: (1) heparin (60 U/mL); (2) heparin (60 U/mL), VEGF (10 ng/ml), and PBS; (3) heparin (60 U/mL), VEGF (10 ng/ml), and scramble peptide (1 mg/ml); and (4) heparin (60 U/mL), VEGF (10 ng/ml), and Dsg2 peptide (1 mg/ml) were subcutaneously injecting into the skin near the abdominal midline of C57BL/6 mice. 7 days after injection, mice were euthanized, and Matrigel plugs were surgically removed and analyzed.
For macroscopic analysis of angiogenesis, hemoglobin content in Matrigel was measured with Drabkin reagent 525 (Sigma-Aldrich). Briefly, the Matrigel plug sample was re-liquefied by being place at 4° C. on ice with red cell lysis reagent for 24 hours. After brief centrifugation, 20 μl of supernatant was added to 100 μl of Drabkin solution. The mixture was allowed to stand 30 minute at room temperature, and the absorbance was measured at 540 nm. The obtained hemoglobin content was normalized to the plug weight and the value was expressed as μg hemoglobin/mg Matrigel plug.

[4] = test system: C57BL/6 mice; test: Oxygen-induced retinopathy (OIR) retinal neovascularization model; format: in vivo, mouse; conditions: FIGS. 9 and 10; for inhibition of angiogenesis (retinal neovascularization) in the OIR model: intravitreal injection at P12, eyes at P17, compared with PBS or scramble peptide, p<0.01
Protocol: The neonatal mouse (C57BL/6) pups of normoxia group (serving as control) were kept in room air until postnatal day 12 (P12), while the pups of OIR group were maintained with their nursing mothers for 5 days in 75% oxygen at P7 and then returned to room air (relative hypoxia) so as to generate oxygen-induced neovascularization at P12. 1 μl of Dsg2 peptide (25 μg), scramble peptide (25 μg) and Avastin (10 μg) were intravitreally injected into mouse eyes at P12, respectively. The animals were killed, and the mouse eyes were enucleated at P17.
Mouse eye cups were fixed in 4% paraformaldehyde for 2 hours. The retina was carefully separated from eye cup, and then incubated with fluorescein-labeled isolectin-B4 (Life technologies) at 4° C. overnight. Samples were coverslipped with Vectashield medium (Vector Laboratories), and the lectin labeling was examined by use of the 20× objective of a Zeiss LSM-510 confocal microscope. Fluorescence volume measurements were recorded by creating image stacks of optical slices within lesions with QWIN software. Values for implicit volume were designated as mean total surface area.

Row | Substance | inhibition of angiogenesis in EPCs ([1]; 0.5 mg/ml (200 uM)) | inhibition of angiogenesis in EPCs ([1]; 1.0 mg/ml (400 uM)) | reduction of tube formation ([1]; 1.0 mg/ml (400 uM), p<0.05) | relative tube length in relative to the control group ([1]; 1.0 mg/ml (400 uM), p<0.05) | inhibition of angiogenesis of HUVEC cells on the Matrigel [2] | efficacy in inhibiting tube formation compared with Avastin ([2]; HUVECs on Matrigel) | formation of newly formed blood vessels in Matrigel plug ([3]; 1 mg/ml in plug with heparin and VEGF, compared with PBS or scramble peptide, FIG. 7) | hemoglobin content of Matrigel plug ([3]; 1 mg/ml in plug, vs plug containing PBS or scramble peptide, p<0.05, FIG. 8) | anti-angiogenic efficacy compared with Avastin ([4]; OIR model, intravitreal) | inhibition of angiogenesis (retinal neovascularization) in the OIR model [4] | inhibition of angiogenesis (tube formation) of EPCs on Matrigel ([1]; fragments at 1.0 mg/ml, p<0.05, FIG. 2)
1 | KINATDADEPNTLNSKISYRC (extra C-terminal cysteine; Dsg2-derived peptide) [Dsg2-derived short peptide, KR20 fragment conjugated with one extra cysteine residue] | significantly inhibited angiogenesis | significantly inhibited angiogenesis | more than 50% | less than 50% | capable of inhibiting angiogenesis | more effective than Avastin | capable of inhibiting the formation of newly formed blood vessels | significantly lower | better than that of Avastin | significantly inhibited the angiogenesis | 
2 | Bevacizumab [Avastin, reference compound] |  |  |  |  | capable of inhibiting angiogenesis |  |  |  |  | significantly inhibited the angiogenesis | 
3 | IVSLEPAYPP (IP10) [fragment of the predicted EC2 domain of Dsg2 peptide] |  |  |  |  |  |  |  |  |  |  | can inhibit the angiogenesis
